# Reference: PubChem BioAssay (NCI)
# “And” between values parts separate entries of the source, which are not always exact repeats. Equal values may be shown once.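 All cell lines were grown in 96-well plates and treated with compound for 48 hours. Here, GI50 denotes the concentration required for 50% inhibition of growth. The concentration for full growth arrest is given as TGI.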
# Columns and labels:
# Assay in all cases: NCI anticancer screen, dose series, 48 h
# [1] = test system: A549 NSCLC
# [2] = test system: ACHN renal
# [3] = test system: HCT-116 colon
# [4] = test system: HS 578T breast
# [5] = test system: HT29 colon
# [6] = test system: MCF7 breast
# [7] = test system: NCI-H226 lung
# [8] = test system: SR leukemia
# [9] = test system: U251 CNS
# [10] = test system: DU-145 prostate
SMILES,TGI [1],TGI [2] [µM],TGI [3] [µM],TGI [4],TGI [5] [µM],TGI [6] [µM],TGI [7],TGI [8] [µM],TGI [9],TGI [10] [µM],GI50 [7] [nM]
COc1ccc(-c2ncn(C[Si](C)(C)C)c2-c2ccc(OC)cc2)cc1,27.2 µM,20.5,13,37.1 µM,10.8,31.1,24.5 µM,66.2,20.7 µM,,
CC1SC2(CCCCC2)N(NC(=O)CSc2nc3ccc(Cl)cc3c(=O)n2-c2ccccc2)C1=O (centres undefined),> 100 µM,83.9,27.2,,33,32.2,,,31.6 µM,85.8,
N#Cc1cc(Sc2ccc(N)c(C#N)c2)ccc1N,> 100 µM,> 100,34.4,39.3 µM,30.9,> 100,81 µM,,> 100 µM,89.6,
CC(C)C(=O)/C=C/S/C=C/C(=O)C(C)C,> 100 µM,5.27,,95.7 µM,> 100,> 100,29.2 µM,,70.6 µM,29.4,
COc1c(Br)cc2ccccc2c1-c1c(OC)c(Br)cc2ccccc12,> 100 µM,> 100,,> 100 µM,> 100,> 100,> 100 µM,,> 100 µM,> 100,
CCCCc1ccc(Nc2nc(Cl)c3ccn(C4CC(Oc5ccc(C)cc5)C(COc5ccc(C)cc5)O4)c3n2)cc1 (centres undefined),> 46.4 µM,31.4,> 46.4,> 100 µM,> 46.4,> 46.4,> 46.4 µM,,> 46.4 µM,> 46.4,
CCN(CC)CC1CN=C(N)O1 (centres undefined),> 100 µM,> 100,> 100,,,> 100,> 100 µM,> 100,> 100 µM,> 100,
COC(=O)[C@]1(c2cc3ccccc3[nH]2)CC2CN(C(=O)OCc3ccccc3)C1CC2=O (some centres undefined),91.5 µM,86,> 100,62.4 µM,31.7,35.5,63.4 µM,,34.1 µM,> 100,
COC(=O)CCNc1c2ccccc2nc2cccc([N+](=O)[O-])c12,0.132 µM and 0.726 µM,,1.11,0.0128 µM and 0.0651 µM,,0.277,0.0333 µM and 0.0378 µM,,0.127 µM and 0.0318 µM,19.6,3.47
C/C=C(\C)C(=O)O[C@@H]1CC(C)(C)CC2C3=CCC4[C@]56CC[C@](O)(OC5)C(C)(C)C6CC[C@@]4(C)C3(C)CC[C@]21C(=O)O (some centres undefined),> 100 µM,> 100,> 100,> 100 µM,> 100,> 100,> 100 µM,,> 100 µM,> 100,
O=C(CN1CCCCC1)Nc1ccc2c(c1)C1Oc3ccccc3CC1CO2 (centres undefined),> 100 µM,,35.2,,29.1,44.1,55.8 µM,> 100,33.3 µM,> 100,
COC(=O)C(Cc1ccc(N(C)C)cc1)(NC(=O)c1ccccc1)P(=O)(OC)OC (centres undefined),> 100 µM,> 100,> 100,,> 100,,> 100 µM,> 100,> 100 µM,,
Cc1c(Cl)cccc1N=NC(=O)NNc1cccc(Cl)c1C,45.2 µM,45.3,28.6,,35.3,,32.6 µM,95,29.7 µM,28.3,
O=C(O)/C(=C\c1ccc(O)cc1)c1cccc2ccccc12,> 100 µM,> 100,> 100,> 100 µM,> 100,,> 100 µM,> 100,> 100 µM,> 100,
CC(C(=O)c1ccncc1)c1ccccn1 (centres undefined),> 100 µM,> 100,> 100,> 100 µM,> 100,> 100,> 100 µM,,> 100 µM,> 100,
Cc1ccc(N=Nc2c(O)ccc3cc(S(=O)(=O)O)ccc23)cc1,> 100 µM,> 100,> 100,> 100 µM,> 100,> 100,> 100 µM,,> 100 µM,> 100,
O=C(c1cccs1)N1CCCN(C(=O)c2cccs2)C1=S,,> 100,> 100,> 100 µM,> 100,> 100,> 100 µM,,> 100 µM,> 100,
COc1ccc(NC(C(N)=O)c2cc3cc(Br)ccc3nc2Cl)cc1 (centres undefined),> 100 µM,> 100,> 100,> 100 µM,> 100,> 100,> 100 µM,51.6,,> 100,
O=c1[nH]nc(Nc2ccccc2)c2nnn(C3CCCCC3)c12,> 100 µM,> 100,> 100,,> 100,> 100,,> 100,> 100 µM,> 100,
CCOC(=O)/C=C(\C(=O)OCC)n1cc(Cl)c(=O)n(CC(=O)OCC)c1=O,45.8 µM,3.02,4.94,> 100 µM,38.3,8.07,31.7 µM,,29.6 µM,31.1,
Cc1cc(Nc2ccc(NS(C)(=O)=O)cc2)c2c(ccc3nccc32)[nH]1,> 100 µM,60.8,37.9,> 100 µM,89.3,36.2,41.9 µM,,29 µM,40.1,
NCCCNOCCCN,> 100 µM,> 100,> 100,,> 100,> 100,,> 100,> 100 µM,> 100,
CCCCSC1=N/C(=C\c2ccc(N(C)C)cc2)C(=O)N1,75.2 µM,> 100,74.9,92.1 µM,36.8,> 100,54.2 µM,,48.2 µM,> 100,
